Laboratory results from ChEMBL document CHEMBL1201862, “PubChem BioAssay data set” (2004).
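1) Cells in 96-well plates. 2) Compound, 48 h, 5 concentrations. 3) Linear interpolation between surrounding doses. 4) Unreached endpoint = highest concentration. At the GI50, growth is halved.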 The source made the active and inactive calls. Cut-off read from the data, not from the text of the source: active = GI50 up to about 1.1 µM and inactive = higher.

Experiments:
Assay in all cases: NCI-60 cell line screen, 48 h
SF-295 = test system: SF-295
M14 = test system: M14
SN12C = test system: SN12C
DMS-114 = test system: DMS-114
COLO 205 = test system: COLO 205
Malme-3M = test system: Malme-3M
NCI-H226 = test system: NCI-H226
NCI-H460 = test system: NCI-H460
A549 = test system: A549
KM-20L2 = test system: KM-20L2
OVCAR-5 = test system: OVCAR-5
ACHN = test system: ACHN
M19-MEL = test system: M19-MEL
SK-OV-3 = test system: SK-OV-3
XF498 = test system: XF498
UACC-62 = test system: UACC-62
OVCAR-3 = test system: OVCAR-3
DMS-273 = test system: DMS-273
SNB-78 = test system: SNB-78
SK-MEL-5 = test system: SK-MEL-5
RXF 393 = test system: RXF 393
786-0 = test system: 786-0
LXFL 529 = test system: LXFL 529
K562 = test system: K562
SW-620 = test system: SW-620
OVCAR-4 = test system: OVCAR-4
HT-29 = test system: HT-29
SF-539 = test system: SF-539
SK-MEL-28 = test system: SK-MEL-28
MOLT-4 = test system: MOLT-4
NCI-H23 = test system: NCI-H23
U-251 = test system: U-251
KM12 = test system: KM12
TK-10 = test system: TK-10
SK-MEL-2 = test system: SK-MEL-2
DLD-1 = test system: DLD-1
OVCAR-8 = test system: OVCAR-8
EKVX = test system: EKVX
UACC-257 = test system: UACC-257
CAKI-1 = test system: CAKI-1
RPMI-8226 = test system: RPMI-8226
HCT-15 = test system: HCT-15
HCT-116 = test system: HCT-116
IGROV-1 = test system: IGROV-1
SR = test system: SR
HOP-92 = test system: HOP-92
SNB-75 = test system: SNB-75
CCRF-CEM = test system: CCRF-CEM
HL-60 = test system: HL-60
UO-31 = test system: UO-31
LOX IMVI = test system: LOX IMVI
SF-268 = test system: SF-268
NCI-H522 = test system: NCI-H522
HCC 2998 = test system: HCC 2998
HOP-62 = test system: HOP-62
A498 = test system: A498
SNB-19 = test system: SNB-19

Measured: GI50

COC(=O)c1cc(OC(C)=O)c2c(OC)ccc(OC)c2c1
64.6 µM: HCT-15
inactive: SF-295 > 100 µM | M14 > 100 µM | SN12C > 100 µM | DMS-114 > 100 µM | COLO 205 > 100 µM | Malme-3M > 100 µM | NCI-H226 > 100 µM | NCI-H460 > 100 µM | A549 > 100 µM | KM-20L2 > 100 µM | OVCAR-5 > 100 µM | ACHN > 100 µM | M19-MEL > 100 µM | SK-OV-3 > 100 µM | XF498 > 100 µM | UACC-62 > 100 µM | OVCAR-3 > 100 µM | DMS-273 > 100 µM | SNB-78 > 100 µM | SK-MEL-5 > 100 µM | RXF 393 > 100 µM | 786-0 > 100 µM | LXFL 529 > 100 µM | K562 > 100 µM | SW-620 > 100 µM | OVCAR-4 > 100 µM | HT-29 47.9 µM | SF-539 > 100 µM | SK-MEL-28 > 100 µM | MOLT-4 60.8 µM | NCI-H23 > 100 µM | U-251 > 100 µM | KM12 > 100 µM | TK-10 > 100 µM | SK-MEL-2 > 100 µM | DLD-1 > 100 µM | OVCAR-8 > 100 µM | EKVX > 100 µM | UACC-257 > 100 µM | CAKI-1 > 100 µM | RPMI-8226 > 100 µM | HCT-116 > 100 µM | IGROV-1 > 100 µM | SR 86.1 µM | HOP-92 > 100 µM | SNB-75 39.5 µM

Cc1ccc(N2C[N+](c3ccccc3)=NC(c3ccccc3)=N2)cc1
48.1 µM: HCT-15
inactive: SF-295 61.7 µM | SN12C 62.2 µM | DMS-114 24.4 µM | COLO 205 31.8 µM | Malme-3M 43.6 µM | NCI-H226 60.8 µM | CCRF-CEM 19.6 µM | HL-60 33.6 µM | NCI-H460 54.1 µM | A549 66.8 µM | KM-20L2 56.9 µM | UO-31 35.9 µM | OVCAR-5 > 100 µM | ACHN 32.7 µM | M19-MEL 28.9 µM | LOX IMVI 32.4 µM | SF-268 > 100 µM | XF498 43.8 µM | OVCAR-3 29.4 µM | DMS-273 30.3 µM | SNB-78 > 10 µM | SK-MEL-5 23.9 µM | RXF 393 80.2 µM | 786-0 68.9 µM | LXFL 529 24.8 µM | K562 23.2 µM | SW-620 51.8 µM | OVCAR-4 40.1 µM | HT-29 39.3 µM | NCI-H522 > 10 µM | SK-MEL-28 55.7 µM | MOLT-4 21.3 µM | HCC 2998 48.3 µM | NCI-H23 38.9 µM | U-251 44.6 µM | KM12 67.6 µM | TK-10 > 100 µM | DLD-1 54.6 µM | OVCAR-8 48.1 µM | EKVX 32.4 µM | UACC-257 53.2 µM | HOP-62 > 100 µM | RPMI-8226 33 µM | HCT-116 35.4 µM | IGROV-1 48.4 µM | SR 36.4 µM | A498 71.9 µM | SNB-19 39.2 µM

O=C1CCN(CCC(F)(F)C(F)(F)C(F)(F)C(F)(F)F)C(=S)N1
inactive: SF-295 > 100 µM | M14 > 100 µM | SN12C > 100 µM | DMS-114 > 100 µM | COLO 205 > 100 µM | Malme-3M > 100 µM | NCI-H226 > 100 µM | CCRF-CEM > 100 µM | HL-60 > 100 µM | NCI-H460 > 100 µM | A549 > 100 µM | KM-20L2 > 100 µM | UO-31 > 100 µM | OVCAR-5 > 100 µM | ACHN > 100 µM | M19-MEL > 100 µM | LOX IMVI > 100 µM | SF-268 > 100 µM | XF498 > 100 µM | UACC-62 > 100 µM | OVCAR-3 > 100 µM | DMS-273 > 100 µM | SNB-78 > 100 µM | SK-MEL-5 > 100 µM | RXF 393 > 100 µM | 786-0 > 100 µM | LXFL 529 > 100 µM | K562 > 100 µM | SW-620 > 100 µM | OVCAR-4 > 100 µM | HT-29 > 100 µM | NCI-H522 > 100 µM | SF-539 > 100 µM | SK-MEL-28 > 100 µM | MOLT-4 > 100 µM | NCI-H23 > 100 µM | U-251 > 100 µM | KM12 > 100 µM | TK-10 > 100 µM | SK-MEL-2 > 100 µM | OVCAR-8 > 100 µM | EKVX > 100 µM | HOP-62 > 100 µM | RPMI-8226 > 100 µM | HCT-116 > 100 µM | IGROV-1 > 100 µM | SR > 100 µM | SNB-19 > 100 µM | SNB-75 > 100 µM
> 100 µM: HCT-15
